These results are taken from patent US5498522A, “Methods for the use of spermidine/spermine N^1 -acetyltransferase as a prognostic indicator and/or a tumor response marker” (priority 1993, dated 1996).

SMILES strings stand for the structures. “Also recorded” adds a separate entry of the source.

In experiment [1] the test system is spermidine/spermine N^1 -acetyltransferase (SSAT). The experiment in a line: SSAT induction in human tumor xenografts in athymic mice in-vivo. The conditions noted are these: for level of induction of SSAT: 40 mg/kg every 8 hours for 5 days, 16 hours after final injection; for Avg. SSAT Activity: measured 24 hours after final treatment (Table 8). As for the experimental part:
For the in-vivo treatment, 10^7 cultured MALME-3 melanoma cells were injected subcutaneously into 20 gram female nude athymic mice. After four in-vivo passages, tumor was removed and 40-50 mm^3 fragments were selected for implantation into mice via subcutaneous trocar implantation. Mice developing palpable tumors of a similar size were divided into different treatment groups comprising mice per group. Following treatment of the mice with a dosage approaching the maximally tolerated dose of the respective bis-ethyl spermine analog, the tumor cells comprising the human xenograft were removed and assayed for SSAT induction. […] Also indicated in Table 1, the level of SSAT induction in-vivo by BESPM was less than 20 fold that of BEHSPM, and the level of SSAT induction in-vivo by BENSPM was about 6 fold greater than that of BESPM. Thus, a conclusion from the results depicted in Table 1 is the rank order in effectiveness of the his-ethyl spermine analogs to induce SSAT levels in-vitro correlated well with their effectiveness to induce SSAT levels in-vivo.
(§1) In accordance with the above methods for assaying the induction of SSAT levels in tumor cell lines treated in-vitro and xenografts treated in-vivo, the induction pattern also correlates fairly well amongst different clonal lines of a particular tumor type. This can be illustrated with melanoma clonal lines LOX, SH-1, PANUT-3, and MALME-3.
(§2) In accordance with the above methods for assaying the induction of SSAT levels in tumor cell lines treated in-vitro and xenografts treated in-vivo, the induction pattern also correlates fairly well amongst carcinomas of solid organs. This can be illustrated with malignant clonal lines A121, A549, and HT29.
Note that the highest drug dosages for each analog approach the maximally tolerated dosage for that particular analog (for example, BEHSPM at 6 mg/kg; BESPM at […]; and BENSPN at 80 mg/kg were tolerated by treated animals, whereas higher doses were toxic). Tumor cells comprising the human xenograft were removed from two animals of each group and assayed for SSAT induction. […] Thus, the antitumor activity for these three analogs correlated with their ability to induce SSAT activity in the same tumor cells growing in-vitro and in-vivo, with the rank order of effectiveness in inducing SSAT levels being: BENSPM>BESPM>BEHSPM (Table 4).
Additional studies were performed using BENSPM treatment of human xenografts to determine if there exists a correlation between antitumor activity and SSAT induction in-vivo. SSAT activity was measured using cell extracts obtained by sonication, in 5 mMN-2 hydroxypiperazine-N^2 -ethanesulfonic acid (pH 7.2) containing 1 mM dithiothreitol, of tumor biopsy from treated mice, and tumor biopsy from control mice. The cytosolic extract resulting from a 1 hour centrifugation at 35,000 rpm in a Spinco 40 rotor was used as the source of the enzyme for the assay of SSAT activity. The cytosolic extract was incubated with 10 μmol HEPES buffer, pH7.8, 0.15 nmol spermidine, and 0.5 nmol [1-^14 C] acetylCoenzyme A, in a final volume of 50 μl, for 5 minutes at 37° C. The reaction was stopped by chilling, the addition of 20 μl of 0.5 M NH2 OH.Cl, and heating in a boiling water bath for 3 minutes. After centrifugation to remove precipitated protein, 50 μl of the reaction was spotted on a disc of P-81 phosphocellulose and counted for radioactivity. Protein concentration was also measured so that enzyme activity was expressed as picomoles of acetylspermine synthesized per minute per milligram of protein.
To illustrate this embodiment, SSAT activity was analyzed in tumor tissue and normal tissue from 2 mice following BENSPM treatment of 5 mice at 40 mg/kg, three times daily, for 6 days (Porter et al., 1993, supra). […]

Experiment [2] shares this test system. The experiment in a line: SSAT induction in cultured human tumor cell lines in-vitro. The conditions noted are these: for SSAT induction (FIG. 5, words) / SSAT: 48 hours. The class given is cell-based. The procedure:
To illustrate this embodiment, three polyamine analogs comprising bis-ethyl spermine analogs were used to treat MALME-3 human melanoma cells cultured in-vitro, and MALME-3 cells implanted as human xenografts in the athymic nude mouse model (Bernacki et al., 1992, supra). For in-vitro treatment, MALME-3 cells were maintained as a monolayer culture growing in RPMI 1640 containing 2% N-2-hydroxy-piperazine-N^1 -ethanesulfonic acid/3-N-morpholinopropanesulfonic acid pH 7.4 as a buffer, 1 mM aminoguanidine as an inhibitor of serum oxidase, and 10% of a semidefined serum substitute. Cells were seeded at 2×10^5 cells/T-75 flask and incubated 24 hours before treatment with analogues. Following treatment with 10 μM of the respective bis-ethyl spermine analog, control and treated cultured cells were trypsinized, washed, and suspended for enzyme assays and cell number determinations.
as §1, §2
As mentioned previously, cells from malignant solid tumor respond to polyamine analog therapy heterotypically. SSAT induction and antitumor response may vary not only among the solid tumor tissue type, but also with the clonal line of tumor of a particular solid tissue type. However, a correlation between the level of induction of SSAT and the potency of antitumor response has been observed in tumors of a particular solid tissue type. For example, seven human melanoma cell lines were assayed in-vitro for their response, as determined by cell growth and level of SSAT induction, to 10 μM BESPM at 48 hours post-treatment. As summarized in FIG. 5, growth among the cell lines decreases as SSAT induction increases.
To illustrate this embodiment, LOX and MALME-3 cell cultures were treated for 48 hours with 10 μm BESPM. The cells from each culture were harvested and assayed for SSAT activity. Media samples were prepared by treating the samples with 50% trichloroacetic acid to give a final concentration of 10% and then centrifuged at 15,000×g for 10 minutes. The supernatant was then filtered through a 0.22-μm filter, extracted with several volumes of ether, lyophilized, and resuspended in 10% trichloroacetic acid. N^1 -acetylspermidine levels of cells and media samples were then measured by use of high-pressure liquid chromatography. […] Similarly, N^1 -acetylspermidine levels from MALME-3 control cells, media from control cell cultures, and treated MALME-3 cells contained minimal levels of N^1 -acetylspermidine.

Experiment [3] has the same test system. The settings on record: cited from earlier work.
Experiment [4] concerns ornithine decarboxylase (ODC). The conditions noted are these: in-vitro; cited from earlier work.
Experiment [5] has as its system S-adenosylmethionine decarboxylase (SAMDC). The conditions noted are these: in-vitro; cited from earlier work.
The mark [6] stands for this setting: MALME-3 xenograft, maximally tolerated dose, every 8 hours for 6 days.

For `CCNCCCNCCCNCCCNCC` [BENSPM, N^1,N^11 -bis(ethyl)norspermine], the SSAT induction in-vivo is on record as 2,905 pmol/min/mg in experiment [1] (A121 xenograft, BENSPM 40 mg/kg 3x/day 6 days, 16 hours post-treatment); 14,295 pmol/min/mg in experiment [1] (A549 xenograft, BENSPM 40 mg/kg 3x/day 6 days, 16 hours post-treatment); 3,535 pmol/min/mg in experiment [1] (HT29 xenograft, BENSPM 40 mg/kg 3x/day 6 days, 16 hours post-treatment); 160 (200/115) pmol/min/mg in experiment [1] (LOX xenograft, BENSPM 40 mg/kg 3x/day 6 days, 16 hours post-treatment); 13,710 (11,490/15,930) pmol/min/mg in experiment [1] (MALME-3 xenograft, BENSPM 40 mg/kg 3x/day 6 days, 16 hours post-treatment (Table 2)); 15,700 pmol/min/mg in experiment [1] (setting [6]). Further, the SSAT induction in-vivo in experiment [1] (PANUT-3 xenograft, BENSPM 40 mg/kg 3x/day 6 days, 16 hours post-treatment) is 25,575 (23,140/22,010) pmol/min/mg; in experiment [1] (SH-1 xenograft, BENSPM 40 mg/kg 3x/day 6 days, 16 hours post-treatment), 7,150 (7,495/6,810) pmol/min/mg. Besides, the “SSAT activity” value in experiment [1] (A121 xenograft, measured 24 hours after final treatment (Table 9)) turned out to be 2905 pmol/min/mg; in experiment [1] (A549 xenograft, measured 24 hours after final treatment (Table 9)), 14295 pmol/min/mg; in experiment [1] (HT29 xenograft, measured 24 hours after final treatment (Table 9)), 3535 pmol/min/mg; in experiment [1] (PANUT-3 tumor, 80 mg/kg, 2 wks post-treatment), 130 pmol/min/mg. Moreover, the results for the “level of induction of SSAT” value in experiment [1] (LOX xenograft) and in experiment [1] (MALME-3 xenograft) were 160 pmol/mg/min and 24,018 pmol/mg/min, respectively. Moreover, the “Avg. SSAT Activity” value in experiment [1] (LOX xenograft) is recorded as 157 pmol/min/mg; in experiment [1] (MALME-3M xenograft) it was 13,710 pmol/min/mg; in experiment [1] (PANUT-3 xenograft), 22,750 pmol/min/mg; in experiment [1] (SH-1 xenograft), 7,150 pmol/min/mg. For the same molecule, the “SSAT induction in-vivo relative to BESPM” value in experiment [1] (MALME-3 xenograft) is recorded as “about 6 fold”. In addition, the “SSAT induction, relative” value in experiment [1] (treated in-vitro and in-vivo, compared to two other analogs) is reported as “greatest induction of SSAT”. The SSAT induction in-vitro in experiment [2] (A121 ovarian, 10 μm BENSPM) is given as 2,700 pmol/min/10^6 cells; in experiment [2] (A549 lung, 10 μm BENSPM), 22,755 pmol/min/10^6 cells; in experiment [2] (HT29 colon, 10 μm BENSPM) it was 3,640 pmol/min/10^6 cells. For the same molecule, the “SSAT induction in-vitro relative to BESPM” value in experiment [2] (MALME-3 cells, 10 μM) lay within 5 to 6 fold. Further, the “SSAT induction in-vitro, PANUT-3 versus MALME-3” value in experiment [3] (BENSPM) is “induced to greater levels in PANUT-3 than in MALME-3”. Besides, in experiment [4], the ODC suppression entry was “similarly suppress ornithine and S-adenosyl-methionine decarboxylase levels”. The SAMDC suppression entry in experiment [5] was “similarly suppress ornithine and S-adenosyl-methionine decarboxylase levels”.
Molecule `CCNCCCCNCCCCNCCCCNCC` [BEHSPM, N^1,N^14 -bis(ethyl)homospermine] showed an SSAT induction in-vivo in experiment [1] (setting [6]) of 125 pmol/min/mg. The SSAT induction in-vitro in experiment [2] (MALME-3 cells, 10 μM analog) was 1108 pmol/min/10^6 cells. Besides, the ODC suppression result in experiment [4] is “similarly suppress ornithine and S-adenosyl-methionine decarboxylase levels”. Further, in experiment [5], the SAMDC suppression result was “similarly suppress ornithine and S-adenosyl-methionine decarboxylase levels”.
For the molecule `CCNCCCNCCCCNCCCNCC` [BESPM, N^1,N^12-bis(ethyl)spermine], the “SSAT induction in-vivo relative to BEHSPM” value in experiment [1] (MALME-3 xenograft) is given as “less than 20 fold”. Moreover, the “SSAT induction (FIG. 5, words)” value in experiment [2] (LOX and SH-1, 10 μM BESPM) is reported as “lowest induction of SSAT levels”; in experiment [2] (MALME-3 and Ebey, 10 μM BESPM), “highest SSAT activity”. The SSAT is 120 pmol/mg/min in experiment [2] (LOX, 10 μM BESPM) and 12,405 pmol/mg/min in experiment [2] (MALME-3, 10 μM BESPM). The SSAT induction in-vitro in experiment [2] (LOX, 10 μm BESPM) was 171 pmol/min/10^6 cells; in experiment [2] (MALME-3, 10 μm BESPM (Table 2)), 19,520 pmol/min/10^6 cells; in experiment [2] (PANUT-3, 10 μm BESPM), 10,343 pmol/min/10^6 cells; in experiment [2] (SH-1, 10 μm BESPM), 1100 pmol/min/10^6 cells. Also, in experiment [2] (MALME-3 cells, 10 μM), the “SSAT induction in-vitro relative to BEHSPM” value is reported as “about 10 fold”. Moreover, the “SSAT levels after treatment” value in experiment [3] (MALME-3, in-vitro) is reported as “extreme induction of SSAT levels”. In experiment [4], the ODC suppression entry is “rapidly suppress ODC and SAMDC; also recorded: similarly suppress ornithine and S-adenosyl-methionine decarboxylase levels”. For the same molecule, in experiment [5], the SAMDC suppression result is “rapidly suppress ODC and SAMDC; also recorded: similarly suppress ornithine and S-adenosyl-methionine decarboxylase levels”.
